Consider two compounds from patent publication US6362176B1, “Compositions, methods and kits for treating rheumatoid arthritis” (Super Gen, Inc., priority 1998, dated 2002).

The conditions of data set [1]: cited from earlier work.
Data set [2] concerns individuals with RA. Particulars: cited from earlier work.
Data set [3] has as its system RA patients. Description: pentostatin monotherapy on a monthly schedule (inventor). Type of data set: in vivo, human. The conditions noted are these: treatment continued past the flare. The text has this:
When the treatment was continued past the flare, approximately a third of the patients entered a pharmaceutical free remission for a period of weeks or months.

The test system of data set [4] is RA patients. The conditions noted are these: bi-weekly pentostatin, months 1 and 3; cited from earlier work.
The test system of data set [5] is CLL; hairy cell leukemia. The conditions noted are these: cited from earlier work.
The mark [6] stands for this setting: 4 mg/M^2 once a week x3 or 4 followed by once every three to four weeks.

On to `CN(Cc1cnc2nc(N)nc(N)c2n1)c1ccc(C(=O)N[C@@H](CCC(=O)O)C(=O)O)cc1` [methotrexate, N-[4-[[(2,4-diamino-6-pteridinyl)methyl]methylamino]benzoyl]-L-glutamic acid], for which, in data set [1] (intramuscular administration), the “time of peak serum concentrations” value is given as “thirty to sixty”. For the same compound, the absorption result in data set [1] (parenteral administration) is on record as “generally complete absorption”. For the same compound, in data set [2] (in vivo), the “patients remaining on methotrexate for two or more years” value is “Up to 70%” and the “time to worsening of RA after monotherapy is discontinued” value is “three to six”. The “patients expected to obtain at least partial relief” value in data set [2] (methotrexate monotherapy, recent studies) is “about 70%”. For the same compound, in data set [2] (methotrexate monotherapy), the “individuals still on the drug five years after starting” value is “over 50%”, the “individuals with RA getting some favorable response” value was “Approximately 70%” and the “patients entering remission as defined by ACR criteria” value is recorded as “less than 30%”.
As for `OC[C@H]1O[C@@H](n2cnc3c2NC=NC[C@H]3O)C[C@@H]1O` [pentostatin, 2′-deoxycoformycin], the “patients entering a pharmaceutical free remission for weeks or months” value in data set [3] was “approximately a third”. The “patients with significant flare (duration of morning stiffness, tender and swollen joints)” value in data set [4] is given as 9 of 11. Besides, in data set [5] (setting [6]), the “efficacy in hairy cell leukemia” value was “effective in inducing remission in hairy cell leukemia” and the “toxicity at even lower doses” value is given as “no toxicity”. The “toxicity at lower doses” value in data set [5] (5 mg/M^2 on two successive days) is “mild with transient leukopenia, nausea and lethargy or somnolence”. Moreover, the “clinical response in CLL” value in data set [5] (doses of 1.0 to 13.5 mg/kg) was “cytoreduction but no clinically meaningful remission in CLL”. In addition, in data set [5] (very high doses), the “toxicity at very high doses” value was “substantial and may include renal failure secondary to acute tubular necrosis, central nervous system toxicity (seizures), pulmonary edema, and keratoconjunctivitis”.
